Values joined by “and” are separate entries in the source; they are usually repeats but may differ in a detail not shown here. Equal values may be shown once. Read-outs that look alike come from different tables or passages of the source.
Tested on: WT ELIC
Assay: Fluorescence stopped-flow liposomal Tl+ flux assay, symmetric liposomes
Type: biochemical, Erwinia chrysanthemi
Set-up: Tl+ flux quenching rate, Avg. / Tl+ flux quenching rate: unit not given here
Conditions: for time constant of activation by Tl+ flux: 10 mM propylamine; for EC50: read-out: EC50 of peak Tl+ flux rate
Description: The fluorescence sequential-mixing stopped-flow liposomal flux measurements were carried using an SX20 stopped-flow spectrofluorometer (Applied Photophysics) and Pro-Data SX software[13],[30]. 7.5 mg of the respective lipid mixture (POPC, 1:1 POPC: POPE, 1:1 POPC:POPG, 3:1 POPC:POPE, 3:1 POPC:POPG, 2:1:1 POPC:POPE:POPG) was dried in a glass vial to a thin film under a constant stream of N2. The lipids were then further dried under vacuum in a desiccator overnight. The following day the lipids were hydrated in 500 µl of reconstitution buffer (100 mM NaNO3, 10 mM HEPES, pH 7) (Buffer R), 250 µl of 75 mM 8-Aminonaphthalene-1,3,6-Trisulfonic Acid (ANTS, ThermoFisher Scientific) in buffer R, and doped with ~18 mg of CHAPS (Anatrace). The mixture was vortexed and then sonicated with heat until completely solubilized. Following the sonication, the solution was brought to RT then 3.5 µl of 6.7 mg/ml ELIC in Buffer A with 0.02% DDM was added (3 µg per mg of lipid). This combined solution was incubated at RT for 30 min, followed by the addition of 1 ml of 1:1 v/v SM-2 BioBeads in Buffer R and an additional 250 µl of 75 mM ANTS in Buffer R. This mixture was incubated at RT for 2.5 hr with gentle mixing. The liposome suspension was then extruded with an Avanti mini-extruder and 0.1 µm membrane (30×). The extruded liposomes were stored at 13 °C overnight with gentle rotation. The next day, the liposomes were diluted to 2.5 mL using assay buffer (140 mM NaNO3, 10 mM HEPES, pH 7) (Stopped-flow Buffer A), loaded into a PD-10 desalting column (Cytiva), eluted with 3 mL of Stopped-flow Buffer A and subsequently diluted 5-fold with Stopped-flow Buffer A.
Using propylamine as the agonist, the assay and analysis was carried out as previously described[13],[30]. ELIC-containing liposomes were first mixed 1:1 with Buffer A containing 2× the concentration of propylamine. After a variable delay of 10 ms to 25 s, the sample was then mixed 1:1 with a quenching buffer (90 mM NaNO3, 50 mM TlNO3, 10 mM HEPES, pH 7), and ANTS fluorescence (ex. 360 nm, fluorescence above 420 nm) was recorded for 1 s. For each delay time, 5 repeat measurements were obtained. The data were collected using Applied Photophysics Pro-Data SX software. The fluorescence quenching traces were fit to a stretched exponential (Eq. 2a) and the rate of Tl^+ influx was determined at 2 ms (Eq. 2b).2a Ft=F∞+F0−F∞⋅e^−t/τ^β 2b kt=β/τ⋅2ms/τ^(β−1) where Ft, F∞, F0 are the fluorescence at time t, final fluorescence and initial fluorescence. τ is the time constant, β the stretched exponential factor, and kt the calculated rate of Tl^+ influx at 2 ms. The time course of desensitization was also fit to a double exponential and a weighted time constant was calculated as was done for the patch-clamp data using Origin 2019b. All replicates were taken from independent samples.

`CCCN` [propylamine] was tested, and the “time constant of activation by Tl+ flux” value (2:1:1 liposomes) was 41 ± 34 ms, the “time constant of activation by Tl+ flux” value (POPC liposomes) was 20 ± 6 ms and the EC50 (2:1:1 POPC:POPE:POPG liposomes, no BaCl2, Hill fit) was 2.4 mM and ~2 mM. The “Hill n of peak Tl+ flux dose response” value (2:1:1 liposomes) was 2.2 ± 0.7, the “Hill n of peak Tl+ flux dose response” value (POPC liposomes) was 3.6 ± 0.6 and the EC50 (POPC liposomes, Hill fit) was 4.3 ± 1.4 mM. For the same compound, the “Tl+ flux quenching rate, Avg.” value (WT 1:1 PC:PE 10 mM PA, delay 0.01 s) was 12.8731, the “Tl+ flux quenching rate, Avg.” value (WT 1:1 PC:PE 10 mM PA, delay 0.025 s) was 18.7932 and the “Tl+ flux quenching rate, Avg.” value (WT 1:1 PC:PE 10 mM PA, delay 0.05 s) was 16.1105. For the same compound, the “Tl+ flux quenching rate, Avg.” value (WT 1:1 PC:PE 10 mM PA, delay 0.1 s) was 21.9541, the “Tl+ flux quenching rate, Avg.” value (WT 1:1 PC:PE 10 mM PA, delay 0.25 s) was 19.0107 and the “Tl+ flux quenching rate, Avg.” value (WT 1:1 PC:PE 10 mM PA, delay 0.5 s) was 18.8714. For the same compound, the “Tl+ flux quenching rate, Avg.” value (WT 1:1 PC:PE 10 mM PA, delay 1 s) was 13.7475, the “Tl+ flux quenching rate, Avg.” value (WT 1:1 PC:PE 10 mM PA, delay 2.5 s) was 11.8878 and the “Tl+ flux quenching rate, Avg.” value (WT 1:1 PC:PE 10 mM PA, delay 5 s) was 9.713. For the same compound, the “Tl+ flux quenching rate, Avg.” value (WT 1:1 PC:PE 10 mM PA, delay 10 s) was 6.252, the “Tl+ flux quenching rate, Avg.” value (WT 1:1 PC:PE 10 mM PA, delay 25 s) was 0.8964 and the “Tl+ flux quenching rate, Avg.” value (WT 1:1 PC:PG 10 mM PA, delay 0.01 s) was 3.795. For the same compound, the “Tl+ flux quenching rate, Avg.” value (WT 1:1 PC:PG 10 mM PA, delay 0.025 s) was 9.924, the “Tl+ flux quenching rate, Avg.” value (WT 1:1 PC:PG 10 mM PA, delay 0.05 s) was 11.1292 and the “Tl+ flux quenching rate, Avg.” value (WT 1:1 PC:PG 10 mM PA, delay 0.1 s) was 12.6513. For the same compound, the “Tl+ flux quenching rate, Avg.” value (WT 1:1 PC:PG 10 mM PA, delay 0.25 s) was 13.2242, the “Tl+ flux quenching rate, Avg.” value (WT 1:1 PC:PG 10 mM PA, delay 0.5 s) was 14.1908 and the “Tl+ flux quenching rate, Avg.” value (WT 1:1 PC:PG 10 mM PA, delay 1 s) was 14.7233. For the same compound, the “Tl+ flux quenching rate, Avg.” value (WT 1:1 PC:PG 10 mM PA, delay 2.5 s) was 12.796, the “Tl+ flux quenching rate, Avg.” value (WT 1:1 PC:PG 10 mM PA, delay 5 s) was 11.2973 and the “Tl+ flux quenching rate, Avg.” value (WT 1:1 PC:PG 10 mM PA, delay 10 s) was 8.515. The “Tl+ flux quenching rate, Avg.” value (WT 1:1 PC:PG 10 mM PA, delay 25 s) was 1.356, the “Tl+ flux quenching rate, Avg.” value (WT 2:1:1 PC:PE:PG 10 mM PA, delay 0.01 s) was 108.066 and the “Tl+ flux quenching rate, Avg.” value (WT 2:1:1 PC:PE:PG 10 mM PA, delay 0.025 s) was 129.134. For the same compound, the “Tl+ flux quenching rate, Avg.” value (WT 2:1:1 PC:PE:PG 10 mM PA, delay 0.05 s) was 140.06, the “Tl+ flux quenching rate, Avg.” value (WT 2:1:1 PC:PE:PG 10 mM PA, delay 0.1 s) was 141.696 and the “Tl+ flux quenching rate, Avg.” value (WT 2:1:1 PC:PE:PG 10 mM PA, delay 0.25 s) was 158.52. The “Tl+ flux quenching rate, Avg.” value (WT 2:1:1 PC:PE:PG 10 mM PA, delay 0.5 s) was 169.325, the “Tl+ flux quenching rate, Avg.” value (WT 2:1:1 PC:PE:PG 10 mM PA, delay 1 s) was 150.743 and the “Tl+ flux quenching rate, Avg.” value (WT 2:1:1 PC:PE:PG 10 mM PA, delay 2.5 s) was 114.107. For the same compound, the “Tl+ flux quenching rate, Avg.” value (WT 2:1:1 PC:PE:PG 10 mM PA, delay 5 s) was 89.8389, the “Tl+ flux quenching rate, Avg.” value (WT 2:1:1 PC:PE:PG 10 mM PA, delay 10 s) was 66.5759 and the “Tl+ flux quenching rate, Avg.” value (WT 2:1:1 PC:PE:PG 10 mM PA, delay 25 s) was 19.0264. For the same compound, the “Tl+ flux quenching rate, Avg.” value (WT 3:1 PC:PE 10 mM PA, delay 0.01 s) was 13.3934, the “Tl+ flux quenching rate, Avg.” value (WT 3:1 PC:PE 10 mM PA, delay 0.025 s) was 16.8702 and the “Tl+ flux quenching rate, Avg.” value (WT 3:1 PC:PE 10 mM PA, delay 0.05 s) was 17.8262. For the same compound, the “Tl+ flux quenching rate, Avg.” value (WT 3:1 PC:PE 10 mM PA, delay 0.1 s) was 25.5678, the “Tl+ flux quenching rate, Avg.” value (WT 3:1 PC:PE 10 mM PA, delay 0.25 s) was 25.5466 and the “Tl+ flux quenching rate, Avg.” value (WT 3:1 PC:PE 10 mM PA, delay 0.5 s) was 29.8205. The “Tl+ flux quenching rate, Avg.” value (WT 3:1 PC:PE 10 mM PA, delay 1 s) was 23.2733, the “Tl+ flux quenching rate, Avg.” value (WT 3:1 PC:PE 10 mM PA, delay 2.5 s) was 17.3881 and the “Tl+ flux quenching rate, Avg.” value (WT 3:1 PC:PE 10 mM PA, delay 5 s) was 8.6052. For the same compound, the “Tl+ flux quenching rate, Avg.” value (WT 3:1 PC:PE 10 mM PA, delay 10 s) was 3.015, the “Tl+ flux quenching rate, Avg.” value (WT 3:1 PC:PE 10 mM PA, delay 25 s) was 0.5341 and the “Tl+ flux quenching rate, Avg.” value (WT 3:1 PC:PG 10 mM PA, delay 0.01 s) was 3.538. For the same compound, the “Tl+ flux quenching rate, Avg.” value (WT 3:1 PC:PG 10 mM PA, delay 0.025 s) was 5.637.

From article PMC9668969 (Nature Communications, 2022)
